From US7842703B2, “Substituted benzofused derivatives and their use as vanilloid receptor ligands” (Glenmark Pharmaceuticals S.A., priority 2005, dated 2010)
Structures can show the parent of a compound that is named as a salt.

Molecular target: T1, Human TRPV1 expressing CHO cells (Homo sapiens, UniProt Q8NER1)
T1 construct: expressed in transfected cells; host or cells: CHO cells under G-418 selection
Assay: Screening for TRPV1 antagonist using the 45Calcium uptake assay (inhibition of capsaicin induced cellular uptake of radioactive calcium)
Format: cell-based
Conditions: for inhibition at 1 µM: CHO; for inhibition at 1 µM / % inhibition of ^45Ca uptake at 1 μM: test compound 1 μM, capsaicin 250 nM, relative to maximum ^45Ca uptake induced by capsaicin alone; for IC50: inhibition of capsaicin (250 nM) induced ^45Ca uptake
Method: The inhibition of TRPV1 receptor activation was followed as inhibition of capsaicin induced cellular uptake of radioactive calcium which represents calcium influx exclusively through the plasma membrane associated TRPV1 receptor.
Stock solution of capsaicin was made in ethanol and test compounds in 100% DMSO. Stock solutions were diluted to appropriate final concentrations in assay buffer keeping the final DMSO concentration between 0.1% and 0.55%.
^45Ca was used at a final concentration of 2.5 μCi/ml (^45Ca, ICN).
Assay buffer was composed of F-12 DMEM medium supplemented with 1.8 mM CaCl2 (final conc.) and 0.1% Bovine serum albumin. (BSA from SIGMA)
Wash buffer was tyrodes solution supplemented with 0.1% BSA and 1.8 mM calcium. Lysis buffer contained 50 mM Tris-HCl, pH7.5, 150 mM NaCl, 1% Triton X-100, 0.5% deoxycholate and 0.1% Sodium dodicyl sulphate (SDS, SIGMA)
Assay was carried out with some modifications the of procedure as described by Toth et. al. (See Toth A et. al., Life Sciences 73 p 487-498, 2003). Human TRPV1 expressing CHO cells were grown in F-12 DMEM (Dulbecco's modified Eagle's medium—GIBCO) medium with 10% FBS (fetal bovine serum Hyclone), 1% penicillin-streptomycin solution, 400 μg/ml of G-418. Cells were seeded 48 h prior to the assay in 96 well plates so as to get ˜50,000 cells per well on the day of experiment. Plates were incubated at 37° C. in the presence of 5% CO2. Cells were then washed twice with 200 μl of assay buffer and re-suspended in 144 μl of the same. Assay was carried out at 30° C. in total volume of 200 μl. Test compounds were added to the cells fifteen minutes before addition of capsaicin, Final concentration of capsaicin in the assay was 250 nM. After 5 minutes of agonist treatment, drug was washed out and wells rinsed with 300 μl of ice cold wash buffer 3×. The cells were lysed in 50 μl lysis buffer for 20 min. 40 μl of cell lysate was mixed with 150 μl of Microscint PS, left overnight for equilibration. Radioactivity in samples was measured as counts per minute (cpm) using Packard Biosciences Top Count. The drug/vehicle/capsaicin treated ^45Ca uptake values were normalized over basal ^45Ca value. Data was expressed as % inhibition of ^45Ca uptake by test compound with respect to maximum ^45Ca uptake induced by capsaicin alone. IC50 value was calculated from dose response curve by nonlinear regression analysis using GraphPadPRISM software.

T1 sequence (Q8NER1 whole entry): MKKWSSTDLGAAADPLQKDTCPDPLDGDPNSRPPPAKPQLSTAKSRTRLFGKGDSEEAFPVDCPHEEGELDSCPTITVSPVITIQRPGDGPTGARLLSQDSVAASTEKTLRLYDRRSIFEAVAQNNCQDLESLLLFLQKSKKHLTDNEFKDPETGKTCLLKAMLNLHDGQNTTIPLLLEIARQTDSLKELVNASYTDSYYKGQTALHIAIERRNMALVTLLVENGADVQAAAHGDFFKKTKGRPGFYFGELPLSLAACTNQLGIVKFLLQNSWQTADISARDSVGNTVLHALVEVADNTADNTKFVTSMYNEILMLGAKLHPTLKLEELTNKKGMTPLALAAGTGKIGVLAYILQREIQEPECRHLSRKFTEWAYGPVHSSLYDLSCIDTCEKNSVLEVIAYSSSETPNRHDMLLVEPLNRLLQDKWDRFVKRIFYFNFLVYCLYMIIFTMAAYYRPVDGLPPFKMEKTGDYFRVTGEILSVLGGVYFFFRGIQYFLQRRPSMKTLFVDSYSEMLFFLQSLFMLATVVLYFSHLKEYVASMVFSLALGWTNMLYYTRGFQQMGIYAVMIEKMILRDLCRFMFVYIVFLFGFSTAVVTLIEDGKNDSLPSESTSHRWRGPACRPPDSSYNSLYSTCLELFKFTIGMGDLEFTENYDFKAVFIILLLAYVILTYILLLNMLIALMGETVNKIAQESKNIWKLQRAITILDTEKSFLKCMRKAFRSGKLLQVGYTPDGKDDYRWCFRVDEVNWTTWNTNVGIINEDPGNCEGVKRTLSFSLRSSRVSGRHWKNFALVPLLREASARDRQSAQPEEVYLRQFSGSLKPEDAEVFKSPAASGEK

Work on `O=C(Nc1cccc2cnccc12)NC1CC2(CCC2)Oc2c(F)cc(F)cc21` (stereo not drawn) [Example 48, 1-(6,8-Difluoro-3,4-dihydro-spiro[2H-1-benzopyran-2,1′-cyclobutane]-4-yl)-3-(isoquinolin-5-yl)urea] yielded an inhibition at 1 µM greater than 50% and an IC50 of 16.1 nM.

With `O=C(Nc1cccc2nsnc12)NC1CC2(CCC2)Oc2ccccc21` (stereo not drawn) [Example 28, N-2,1,3-benzothiadiazol-4-yl-N′-3,3′,4,4′-tetrahydro-2′H-spiro[chromene-2,1′-cyclobutan]-4-ylurea (N-2,1,3-benzothiadiazol-4-yl-N′-3,4-dihydro-2H-spiro[chromene-2,1′-cyclobutan]-4-ylurea)] the “% inhibition of ^45Ca uptake at 1 μM” value was less than 50%.

`CC(=O)n1ncc2cc(NC(=O)NC3CC4(CCC4)Oc4ccccc43)ccc21` (racemic) [Example 19, (±) 1-(3,4-Dihydro-spiro[2H-1-benzopyran-2,1′-cyclobutane]-4-yl)-3-(1-acetyl-1H-indazol-5-yl)urea] was tested, and the inhibition at 1 µM was less than 50%.

Work on `O=C(Nc1ccc(Cl)c2cnccc12)NC1CC2(CCC2)Oc2ccccc21` (racemic) [Example 6, (±) 1-(3,4-dihydro-spiro[2H-1-benzopyran-2,1′-cyclobutane]-4-yl)-3-(8-chloroisoquinolin-5-ylurea] yielded an inhibition at 1 µM greater than 50% and an IC50 of 339 nM.

For `O=C(Nc1nc2cc(Cl)ccc2o1)NC1CC2(CCC2)Oc2ccccc21` (racemic) [Example 23, (±) 1-(3,4-Dihydro-spiro[2H-1-benzopyran-2,1′-cyclobutane]-4-yl)-3-(5-chloro-1,3-benzoxazol-2-yl)urea], the inhibition at 1 µM was less than 50%.

For `O=C(Nc1cccc2cnccc12)NC1CC2(CCC2)Oc2ccc([N+](=O)[O-])cc21` (racemic) [Example 77, (±) 1-(3,4-Dihydro-6-nitro-spiro[2H-1-benzopyran-2,1′-cyclobutane]-4-yl)-3-(isoquinolin-5-yl)urea], the inhibition at 1 µM was greater than 50% and the IC50 was 463 nM.

With `O=C(Nc1cccc2cnccc12)NC1CC2(CCC2)Oc2cc(O)ccc21` (racemic) [Example 46, (±) 1-(3,4-Dihydro-7-hydroxy-spiro[2H-1-benzopyran-2,1′-cyclobutane]-4-yl)-3-(isoquinolin-5-yl)urea] the inhibition at 1 µM was less than 50%.

For `CC(=O)Nc1ccc2c(c1)C(NC(=O)Nc1cccc3cnccc13)CC1(CCC1)O2` (racemic) [Example 78, (±) 1-(6-Acetamido-3,4-dihydro-spiro[2H-1-benzopyran-2,1′-cyclobutane]-4-yl)-3-(isoquinolin-5-yl)urea], the inhibition at 1 µM was less than 50%.

With `Cc1nccc2c(NC(=O)NC3CC4(CCC4)Oc4ccccc43)cccc12` (racemic) [Example 8, (±) 1-(3,4-Dihydro-spiro[2H-1-benzopyran-2,1′-cyclobutane]-4-yl)-3-(1-methylisoquinolin-5-yl)urea] the inhibition at 1 µM was greater than 50% and the IC50 was 551 nM.

In the case of `O=C(Nc1cccc2cnccc12)NC1CC2(CCC2)Oc2cc(OC(F)F)ccc21` (racemic) [Example 54, (±) 1-(7-Difluoromethoxy-3,4-dihydro-spiro[2H-1-benzopyran-2,1′-cyclobutane]-4-yl)-3-(isoquinolin-5-yl)urea. Hydrochloride], the inhibition at 1 µM is reported as greater than 50% and the IC50 is reported as 2.23 nM.

`O=C(Nc1cccc2cnccc12)NC1CC2(CCC2)Oc2ccc(OC3CCCC3)cc21` (racemic) [Example 52, (±) 1-(6-Cyclopentyloxy-3,4-dihydro-spiro[2H-1-benzopyran-2,1′-cyclobutane]-4-yl)-3-(isoquinolin-5-yl)urea] gave an inhibition at 1 µM of less than 50%.

For `O=C(Nc1cccc2cnccc12)NC1CC2(CCC2)Oc2ccc(Cl)cc21` (single isomer, unassigned; (-)) [Example 64, (−) 1-(6-Chloro-3,4-dihydro-spiro[2H-1-benzopyran-2,1′-cyclobutane]-4-yl)-3-(isoquinolin-5-yl)urea], the inhibition at 1 µM was less than 50%.

Work on `O=C(Nc1cccc2cnccc12)NC1CC2(CCC2)Oc2c(Cl)cc(Cl)cc21` (racemic) [Example 66, (±) 1-(6,8-Dichloro-3,4-dihydro-spiro[2H-1-benzopyran-2,1′-cyclobutane]-4-yl)-3-(isoquinolin-5-yl)urea] yielded an inhibition at 1 µM greater than 50% and an IC50 of 462 nM.

For `Cn1ncc2cc(NC(=O)NC3CC4(CCC4)Oc4ccccc43)ccc21` (racemic) [Example 13, (±) 1-(3,4-Dihydro-spiro[2H-1-benzopyran-2,1′-cyclobutane]-4-yl)-3-(1-methyl-1H-indazol-5-yl)urea], the inhibition at 1 µM was greater than 50% and the IC50 was 147 nM.

In the case of `O=C(Nc1cccc2cnccc12)NC1CC2(CCC2)Sc2ccccc21` (racemic) [Example 81, (±) 1-(3,4-dihydro-spiro[2H-1-benzothiopyran-2,1′-cyclobutan]-4-yl)-3-(isoquinolin-5-yl)urea], the inhibition at 1 µM is reported as greater than 50% and the IC50 is reported as 5.2 nM.

With `O=C(Nc1cccc2c[n+]([O-])ccc12)NC1CC2(CCC2)Oc2ccccc21` (racemic) [Example 9, (±) 1-(3,4-Dihydro-spiro[2H-1-benzopyran-2,1′-cyclobutane]-4-yl)-3-(2-oxoisoquinolin-5-yl)urea] the inhibition at 1 µM was greater than 50% and the IC50 was 103 nM.

`CC(C)(C)c1nnc(NC(=O)NC2CC3(CCC3)Oc3ccccc32)s1` (racemic) [Example 16, (±) 1-(3,4-Dihydro-spiro[2H-1-benzopyran-2,1′-cyclobutane]-4-yl)-3-(5-tert-butyl-1,3,4-thiadiazol-2-yl)urea] was tested, and the inhibition at 1 µM was greater than 50% and the IC50 was 797 nM.

Compound `O=C(Nc1cccc2cnccc12)NC1CC2(CCC2)Oc2c(OC(F)F)cccc21` (racemic) [Example 62, (±) 1-(3,4-Dihydro-8-difluoromethoxy-spiro[2H-1-benzopyran-2,1′-cyclobutane]-4-yl)-3-(isoquinolin-5-yl)urea] has an inhibition at 1 µM of less than 50%.

In the case of `S=C(Nc1cccc2ccncc12)NC1CC2(CCC2)Oc2ccccc21` (stereo not drawn) [Example 83, N′-isoquinolin-8-yl-N-3,3′,4,4′-tetrahydro-2′H-spiro[chromene-2,1′-cyclobutan]-4-ylthiourea (N′-isoquinolin-8-yl-N-3,4-dihydro-2H-spiro[chromene-2,1′-cyclobutan]-4-ylthiourea)], the “% inhibition of ^45Ca uptake at 1 μM” value is reported as less than 50%.

With `Cc1cc2c(NC(=O)NC3CC4(CCC4)Oc4cc(Cl)ccc43)cccc2cn1` (racemic) [Example 57, (±) 1-(7-Chloro-3,4-dihydro-spiro[2H-1-benzopyran-2,1′-cyclobutane]-4-yl)-3-(3-methylisoquinolin-5-yl)urea] the inhibition at 1 µM was greater than 50% and the IC50 was 442 nM.

For `O=C(Nc1ncc(-c2ccc(Br)cc2)s1)NC1CC2(CCC2)Oc2ccccc21` (racemic) [Example 17, (±) 1-(3,4-Dihydro-spiro[2H-1-benzopyran-2,1′-cyclobutane]-4-yl)-3-[5-(4-bromophenyl)-1,3-thiazol-2-yl])urea], the “% inhibition of ^45Ca uptake at 1 μM” value was less than 50%.

Compound `O=C(Nc1cccc2cnccc12)NC1CC2(CCC2)Oc2ccc(O)cc21` (racemic) [Example 45, (±) 1-(3,4-Dihydro-6-hydroxy-spiro[2H-1-benzopyran-2,1′-cyclobutane]-4-yl)-3-(isoquinolin-5-yl)urea] has an inhibition at 1 µM of less than 50%.

Compound `CN1CCC2(CC1)CC(NC(=O)Nc1cccc3cnccc13)c1ccccc1O2` (racemic) [Example 1, (±) 1-{3,4-Dihydro-1′-(methyl)spiro-[2H-1-benzopyran-2,4′-piperidine]-4-yl}-3-(isoquinoline-5-yl)urea] has an inhibition at 1 µM of 142%.

`O=C(NCc1ccco1)NC1CC2(CCC2)Oc2ccccc21` (racemic) [Example 25, (±) 1-(3,4-Dihydro-spiro[2H-1-benzopyran-2,1′-cyclobutan]-4-yl)-3-(2-furylmethyl)urea] showed an inhibition at 1 µM of less than 50%.

For `Cc1cc2c(cc1Cl)C(NC(=O)Nc1cccc3cnccc13)CC1(CCC1)O2` (racemic) [Example 69, (±) 1-(6-Chloro-3,4-dihydro-7-methyl-spiro[2H-1-benzopyran-2,1′-cyclobutane]-4-yl)-3-(isoquinolin-5-yl)urea], the inhibition at 1 µM was greater than 50% and the IC50 was 45 nM.

For `COc1ccc2c(c1)C(NC(=O)Nc1cccc3cnccc13)CC1(CCC1)O2` (racemic) [Example 51, (±) 1-(3,4-Dihydro-6-methoxy-spiro[2H-1-benzopyran-2,1′-cyclobutane]-4-yl)-3-(isoquinolin-5-yl)urea], the inhibition at 1 µM was greater than 50% and the IC50 was 585 nM.
